Tests used:
[1] = tested on: lipid peroxides (as malondialdehide); assay: Oxidative stress in midguts of bees fed bee candy (lipid peroxides as MDA, thiobarbituric acid); assay type: in vivo, honey bees; conditions: 3 days, control = 100%, 4.3 µg/g maltol, 0.41 µg/g p-coumaric acid, 0.45 µg/g caffeic acid where present (mixture row prints µg/l)
Procedure: (§1) Optimization of the ratio of hydroxycinnamic acids, p-coumaric and caffeic, and maltol, was obtained by using experiments designed according to response surface technique, using the Software Design-Expert® v. 9.0 (Stat-Ease, Minneapolis, MN, USA). Two bioassays were used, wherein the effect of different combinations of maltol and hydroxycinnamic acids, p-coumaric and caffeic, were determined, on fructophilic lactobacteria growth and on oxidative stress and on the induction of CYP9Q, enzyme from cytochrome P450 monooxigenase class, with key role in defense systems of bees (Mao et al., 2013, PNAS, 110: 8842-8846). […] After three days bees midguts were taken by dissection, frozen in liquid nitrogen and stored at -80 ° C, to extract total RNA for quantitative RT-PCR analysis of CYP9Q3 expression and for the determination of lipid peroxides (as malondialdehide) as markers of oxidative stress. RNA was extracted from frozen abdomens by TRIzol method (Invitrogen, Thermo Fisher Scientific, Waltham, MA, USA), treated with DNAse (Ambion® protocol, Thermo Fisher Scientific) and used for the quantitative analysis of the expression CYP9Q by RT-PCR, as described by Mao et al., 2011 (PNAS, 108, 12657-12662). Lipid peroxides were determined as malondialdehid ? , with tiobarbituric acid (Rael et al., 2004, J. Biochem. Mol. Biol, 3, 749-752).

[2] = tested on: Lactobacillus kunkeei DSM 12361; assay: Growth of fructophilic lactobacteria on FYP broth with glucose-fructose syrup; assay type: cell-based; conditions: FYP medium with glucose-fructose syrup; 21.5 mg/l maltol, 2.05 mg/l p-coumaric acid, 2.25 mg/l caffeic acid where present
Procedure: Optimization of the ratio of hydroxycinnamic acids, p-coumaric and caffeic, and maltol, was obtained by using experiments designed according to response surface technique, using the Software Design-Expert® v. 9.0 (Stat-Ease, Minneapolis, MN, USA). Two bioassays were used, wherein the effect of different combinations of maltol and hydroxycinnamic acids, p-coumaric and caffeic, were determined, on fructophilic lactobacteria growth and on oxidative stress and on the induction of CYP9Q, enzyme from cytochrome P450 monooxigenase class, with key role in defense systems of bees (Mao et al., 2013, PNAS, 110: 8842-8846). […] The ratio 4.1 parts p-coumaric acid, 4.5 parts caffeic acid and 43 parts maltol, determined as being optimal in terms L. kunkeei development enhancement, was re-tested in laboratory conditions, using 400 g/l glucose-fructose syrup (Isosugar 031™, Tate and Lyle, London, United Kingdom, 74.8% dry matter, 50.2% of which is fructose), instead of 300 g/l of fructose on FYP broth. […]

CYP9Q = CYP9Q induction in bees fed bee candy (quantitative RT-PCR); assay type: in vivo, honey bees; conditions: 3 days, control = 100%, 4.3 µg/g maltol, 0.41 µg/g p-coumaric acid, 0.45 µg/g caffeic acid where present (mixture row prints µg/l)
Procedure: as §1

Inducing CYP9Q (%) (CYP9Q): 102.9%
Structure (SMILES): Cc1occc(=O)c1O [maltol, 3-Hydroxy-2-methyl-4H-piran-4-one]
Oxidative stress MDA (%) [1]: 123,7% | Culture development (% control) [2]: 76.8 % control | Lactic acid production (% control) [2]: 67,9 % control
